Results from patent US8846951B2 (AbbVie Inc., priority 2009, dated 2014).
pEC50: −log10 of the molar value. “Also recorded” adds a separate entry of the source.

Tests used:
5HT2B receptors = molecular target: T1, 5HT2B receptors (Homo sapiens, UniProt P41595); test: Human 5-HT2B functional high throughput screening assay in CHO-K1 cells (calcium flux); type: cell-based
T1 construct: expressed in transfected cells; host or cells: CHO-K1 cells
Outline: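 Agonism was measured as FLIPR fluorescence increase (480/530 nm, 25° C) with Ca4 dye and 2.5 mM probenecid, in serum-starved CHO-K1 lines overexpressing human 5-HT2C or 5-HT2B. Six-point 1:10 dilutions from 10 μM (0.2% DMSO final) were fitted by 4-parameter logistics. Responses were normalised to serotonin to give EC50 and % Emax.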

[1] = tested on: PCP-induced hyperlocomotion; test: Psychostimulant (PCP)-induced hyperlocomotion in rat; type: in vivo; settings: male CD rats; i.p. 1, 3, 10 mg/kg 30 min before PCP 2 mg/kg sc; significant at 1 mg/kg and 10 mg/kg
Description: (vii) Assessment of Effects on Psychostimulant-Induced Hyperlocomotion in Rat
In humans, phencyclidine (PCP) is known to produce a syndrome of behavioral effects which have many characteristics in common with schizophrenia. Therefore, antagonism of PCP effects might be evidence for antipsychotic efficacy of a compound.
Male CD rats with a body weight of 316-394 g from Charles River (Portage, Mich.) were used in this study. The rats were habituated to the test room for 60 minutes. The rats were then placed into the locomotor activity chambers (AccuScan Instruments) for 30 minutes and then were dosed i.p. with Example 115 at 0, 1, 3 and 10 mg/kg. The rats were dosed sc 30 minutes later with PCP at 0 or 2 mg/kg. The activity was measured for 150 minutes in total and 90 minutes post PCP.

[2] = tested on: MK-801-induced deficits in inhibitory avoidance; test: 24-hour inhibitory avoidance in mouse (MK-801-induced deficit); type: in vivo; settings: CD1 mice; i.p.; high dose of 10 mg/kg; compared to Veh-MK-801 (0.1 mg/kg)
From the text: (viii) Inhibitory Avoidance in Mouse
Specifically in the hippocampus CA1 area, N-methyl-D-aspartic acid (NMDA) receptors are known to regulate synaptic plasticity, long term-potentiation (LTP), and learning and memory processes, including short- and long-term memories. […] The inhibitory avoidance task involves the uses of a two-compartment step through apparatus (Ugo Basile, Collegeville, Pa.) that measures the animal's ability to remember a brief noxious stimulus (foot shock), and is considered a measure of trial learning, and memory. (Bitner, R. S., et al. J. Neurosci. 2007, 27(39), 10578-10587). The purpose of this experiment was to test the ability of a 5HTc agonist to attenuate MK-801-induced deficits in the 24-hour inhibitory avoidance test. Effects against MK-801-induced cognitive impairment may indicate a potential efficacy in treating cognitive deficits of schizophrenia.
Following a 2 hour habituation period, CD1 mice first received i.p. treatment with the test compound at 0, 1, 3, 10 mg/kg. 20 minutes later mice then received either MK-801 at 0.1 mg/kg (dissolved in 0.3% tartaric acid) or vehicle (Veh, water). […] The latency to enter the adjoining dark chamber was recorded, and an inescapable foot shock (0.3 mA, 1 second duration) was presented to the mouse. […] The latency to enter the dark chamber was recorded and was the dependent variable measured for assessing memory retention.

T1 sequence (P41595 whole entry): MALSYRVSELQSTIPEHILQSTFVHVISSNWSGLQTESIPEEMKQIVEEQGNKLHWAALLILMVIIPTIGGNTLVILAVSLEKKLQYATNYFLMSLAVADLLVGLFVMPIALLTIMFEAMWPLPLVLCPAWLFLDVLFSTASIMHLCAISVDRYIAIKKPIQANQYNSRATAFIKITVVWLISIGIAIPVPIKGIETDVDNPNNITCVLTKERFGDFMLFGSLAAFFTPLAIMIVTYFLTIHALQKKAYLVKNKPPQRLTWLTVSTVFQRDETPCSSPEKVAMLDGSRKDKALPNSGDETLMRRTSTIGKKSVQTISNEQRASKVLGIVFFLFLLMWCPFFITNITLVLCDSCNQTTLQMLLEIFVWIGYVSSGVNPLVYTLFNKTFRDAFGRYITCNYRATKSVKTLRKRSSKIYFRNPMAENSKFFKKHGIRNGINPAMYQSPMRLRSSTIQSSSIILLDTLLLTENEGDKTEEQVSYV

pEC50 (5HT2B receptors; 5-HT2B agonist activity, CHO-K1 cells, calcium flux, read-out: EC50): < 5.00 | Emax (5HT2B receptors; 5-HT2B, maximum functional response as percentage relative to the effect of serotonin): inactive
Structure (SMILES): CN1C[C@@H]2CNC(=O)c3cc(-c4ccc(F)cc4)ccc3[C@H]2C1 [Example 115, (3aS,10bS)-8-(4-Fluorophenyl)-2-methyl-1,2,3,3a,4,5-hexahydrobenzo[e]pyrrolo[3,4-c]azepin-6(10bH)-one]
PCP-induced hyperlocomotion (distance traveled) [1]: significantly attenuate the PCP-induced hyperlocomotion; also recorded: attenuating the affect of phencyclidine (PCP) | transfer latency, 24-hour inhibitory avoidance [2]: significantly increased transfer latencies; also recorded: dose-dependent improvement in mouse 24-hour inhibitory avoidance scores
